The assay deals with T1, LKB1 (Liver kinase B1, STK11) (Homo sapiens, UniProt Q15831).
T1 construct: Recombinant Human LKB1 (CSB-EP624036HU)
T1 sequence (Q15831 1-430): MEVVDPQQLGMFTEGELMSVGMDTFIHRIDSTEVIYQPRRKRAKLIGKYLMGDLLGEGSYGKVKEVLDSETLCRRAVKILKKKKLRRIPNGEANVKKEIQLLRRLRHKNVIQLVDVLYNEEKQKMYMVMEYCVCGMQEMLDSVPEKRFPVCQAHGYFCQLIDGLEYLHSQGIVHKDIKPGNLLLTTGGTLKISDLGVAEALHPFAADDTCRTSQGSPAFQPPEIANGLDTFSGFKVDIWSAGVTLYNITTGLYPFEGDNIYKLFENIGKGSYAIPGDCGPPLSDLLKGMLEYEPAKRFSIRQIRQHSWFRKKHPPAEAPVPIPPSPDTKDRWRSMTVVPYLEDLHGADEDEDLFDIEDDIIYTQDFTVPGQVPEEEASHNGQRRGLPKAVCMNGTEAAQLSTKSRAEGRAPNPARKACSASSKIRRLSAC
The assay can be described thus: SPR imaging (PlexArray HT A100), LKB1 immobilized on a 3D Dextran chip, […] fit. Type of assay: binding.

Regarding `COc1nc(C/C=C(\C)C/C=C/C(C)=C/[C@@H](C)[C@@H](O[C@@H]2O[C@H](CO)[C@@H](O)[C@H](O)[C@H]2O)/C(C)=C/CO)c(C)c(O)c1OC` [PA-S14, piericidin analogue S14], the Kd came to 120 nM. That is a sub-micromolar value.

What is called Kd is the constant that tells how readily two partners part at equilibrium.
